The values that follow come from publication PMC12345172, “Uptake of fucosylated type I human milk oligosaccharide blocks by Bifidobacterium longum subsp. infantis” (mBio, 2025).

Each structure is given as a SMILES string. Where two headings read alike, the source gives them in different places.

In experiment [1] the target is T1, Blon_0883 (BiGFL-BP) (Bifidobacterium longum, UniProt A0AAX1LHV4).
T1 construct: gene msmE_4; mature peptide, amino acids 24-460, signal peptide removed; N-terminal TEV-cleavable His tag cut; E. coli BL21(DE3)
T1 sequence (A0AAX1LHV4 24-445): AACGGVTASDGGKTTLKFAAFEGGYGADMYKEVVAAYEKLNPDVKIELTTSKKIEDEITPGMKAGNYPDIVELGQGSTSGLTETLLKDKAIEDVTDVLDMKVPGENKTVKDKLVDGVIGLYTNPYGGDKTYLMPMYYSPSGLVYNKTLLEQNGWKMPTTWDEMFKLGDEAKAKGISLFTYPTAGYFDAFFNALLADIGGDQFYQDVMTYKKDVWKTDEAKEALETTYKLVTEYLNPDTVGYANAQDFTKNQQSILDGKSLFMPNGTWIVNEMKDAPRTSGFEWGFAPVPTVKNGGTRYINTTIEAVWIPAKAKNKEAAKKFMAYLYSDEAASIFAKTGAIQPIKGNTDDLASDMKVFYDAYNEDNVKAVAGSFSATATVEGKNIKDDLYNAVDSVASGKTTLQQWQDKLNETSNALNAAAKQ
Also noted: SPR (Biacore T100), immobilized Blon_0883 on CM5 chip, 25 °C, pH 6.5; kinetic and steady-state fits. The conditions noted are these: binder. The method, then:
(§1) Affinity of Blon_0883 to oligosaccharides was also determined using a Biacore T100 (GE Healthcare). The protein was diluted into 10 mM sodium acetate (pH 4.2) to 2.0 µM and immobilized on a CM5 sensor chip using random amine coupling kit (GE Healthcare) to a density of 3,077 response units (RU) and the sensograms were recorded at 25°C in the same buffer used for the ITC (including 150 mM NaCl and 0.005% P20 surfactant) and analyzed as described ([24]). Experiments were performed in independent duplicates in the range 3.42–2,500 nM for LNB, GNB, Lewis A triose and Blood group H antigen triose. Binding was also tested using 0.1 µM–100 mM Lac, Gal, 3FL, 3SL, DFL LNT, and di-N-acetyl-lactosamine. The mature peptide of Blon_0883 was produced and purified to electrophoretic homogeneity. The binding affinity and thermodynamics of the transport protein were analyzed using isothermal titration calorimetry (ITC) and surface plasmon resonance (SPR) (Fig. 1; Fig. S1; Table S1). Among the tested ligands, the highest affinities were measured toward LNB and GNB. The binding of both ligands was driven by favorable enthalpy, similar to other saccharide-specific SBP ([21]) (Table 1). The Lewis a (Le^a) and blood group H type 1 antigen (H1) trisaccharides were both bound with about four-fold lower affinity than the preferred LNB ligand. […] Panels A through D depict representative binding isotherms based on technical triplicates. The circles are blank and reference-corrected binding levels, and the solid lines are the fits of a one binding site model to the steady state data. Panels E and F depict the blank and reference-corrected sensograms in gray, and the green lines are the global fits of a kinetic one site binding model to the binding sensograms.

Experiment [2] has as its target T1, Blon_0883 (BiGFL-BP). Nature of the experiment: surface plasmon resonance, steady state. The conditions noted are these: 25 °C, pH 6.5, 10 mM sodium phosphate, 150 mM NaCl, 0.005% P20; protein amine-coupled to CM5 chip. It counts as binding. An excerpt: surface plasmon resonance, steady state on Blon_0883 (BiGFL-BP)
The target of experiment [3] is T1, Blon_0883 (BiGFL-BP). Nature of the experiment: biochemical. On the set-up: SPR (Biacore T100), immobilized Blon_0883 on CM5 chip, 25 °C, pH 6.5; kinetic and steady-state fits. The conditions noted are these: SPR kinetic global fit; for kon: read-out: kon (×10^6 M^-1s^-1). The method, then:
as §1
(SPR reads the build-up and loss of mass on a sensor chip optically.)

Experiment [4] addresses T1, Blon_0883 (BiGFL-BP). As to the kind of experiment: isothermal titration calorimetry. The format is binding. The conditions noted are these: 25 °C, pH 6.5, 10 mM sodium phosphate; one-site model; free protein in solution. An excerpt: isothermal titration calorimetry on Blon_0883 (BiGFL-BP)
For orientation: ITC needs no label: the signal is the heat of the interaction.

Setting [5] is: SPR kinetic global fit, read-out: Kd Kinetics.

As usually defined, the Kd is the concentration at which binding is half-saturated. As a reminder, the koff is the first-order rate constant of dissociation. Low values mean a long-lived complex, high ones a short-lived complex. Usually kon stands for the rate constant with which the complex forms. As to `CC(=O)N[C@H]1C(O)O[C@H](CO)[C@@H](O[C@@H]2O[C@@H](C)[C@@H](O)[C@@H](O)[C@@H]2O)[C@@H]1O[C@@H]1O[C@H](CO)[C@H](O)[C@H](O)[C@H]1O` (stereo partly drawn) [Le^a], on Blon_0883 (BiGFL-BP) [1] (setting [5]), the Kd was 49 nM. The Kd at Blon_0883 (BiGFL-BP) [2] came to 146 ± 12 nM. At Blon_0883 (BiGFL-BP) [3], the koff stood at 0.14 ± 0.0005 s⁻¹ and the kon was found to be 3e+06 ± 10000 M⁻¹ s⁻¹.
Regarding `CC(=O)N[C@H]1C(O)O[C@H](CO)[C@@H](O)[C@@H]1O[C@@H]1O[C@H](CO)[C@H](O)[C@H](O)[C@H]1O[C@@H]1O[C@@H](C)[C@@H](O)[C@@H](O)[C@@H]1O` (stereo partly drawn) [H1], the dissociation constant Kd at Blon_0883 (BiGFL-BP) [1] (setting [5]) turned out to be 37 nM. The Kd at Blon_0883 (BiGFL-BP) [2] came to 158 ± 9 nM. Also, on Blon_0883 (BiGFL-BP) [3], the koff worked out at 0.17 ± 0.002 s⁻¹ and the kon turned out to be 4.8e+06 ± 60000 M⁻¹ s⁻¹.
For `CC(=O)N[C@H]1C(O)O[C@H](CO)[C@@H](O)[C@@H]1O[C@@H]1O[C@H](CO)[C@H](O)[C@H](O)[C@H]1O` (stereo partly drawn) [LNB, Galβ1,3GlcNAc], the Kd at Blon_0883 (BiGFL-BP) [1] (setting [5]) is 11 nM; at Blon_0883 (BiGFL-BP) [1] (SPR steady-state fit) it was 32.5 ± 3.2 nM; on Blon_0883 (BiGFL-BP) [4], 68.5 nM. The compound also showed a koff on Blon_0883 (BiGFL-BP) [3] of 0.16 ± 0.003 s⁻¹. Also, the kon at Blon_0883 (BiGFL-BP) [3] turned out to be 1.46e+07 ± 30000 M⁻¹ s⁻¹.
`CC(=O)N[C@H]1C(O)O[C@H](CO)[C@H](O)[C@@H]1O[C@@H]1O[C@H](CO)[C@H](O)[C@H](O)[C@H]1O` (stereo partly drawn) [GNB, Galβ1,3GalNAc]: the Kd was 42 nM at Blon_0883 (BiGFL-BP) [1] (setting [5]), 62 ± 4 nM on Blon_0883 (BiGFL-BP) [1] (SPR steady-state fit) and 169 nM on Blon_0883 (BiGFL-BP) [4]. Besides, the koff on Blon_0883 (BiGFL-BP) [3] came out at 0.04 ± 0.003 s⁻¹. For the same compound, the kon at Blon_0883 (BiGFL-BP) [3] is 850000 ± 4000 M⁻¹ s⁻¹.
